Measurements published in patent publication US8501770B2 (ArQule, Inc., priority 2009, dated 2013).

Key:
[1] = target: T1, Full-length inactive AKT1 (Homo sapiens, UniProt P31749); assay: Inactive Akt HTRF Assay (Akt1)
Description: AKT1 activity was assayed using CisBio KinEASE™ HTRF Assay technology. This technology utilizes a proprietary biotinylated peptide substrate (STKS3), streptavidin labeled XL665 antibody, and STK antibody-Eu^3+-cryptate. AKT1 activation was achieved by the addition of the activating kinases PDK1 and MAPKAPK2, lipid vesicles, and ATP. The extent of STKS3 biotinylated peptide phosphorylation was determined using a phospho-STK antibody-Eu^3+-cryptate and streptavidin labeled XL665 antibody. XL665 was stimulated by Eu^3+-cryptate resulting in a TR-FRET signal proportional to the SKS3 phosphorylation level.

[2] = tested on: A2780; assay: MTS Assay, cell proliferation, A2780; type: cell-based; settings: Homo sapiens, read-out: Average of [CELL], IC50, MTS (72 hours; 10 Percent; FBS) A2780
Description: (§1) Cell proliferation analysis. Cell survival was determined by the MTS assay. Briefly, cells were plated in a 96-well plate at 2,000-10,000 cells per well, cultured for 24 hours in complete growth medium, and then treated with various drugs and drug combinations for 72 hours. MTS was added and incubated for 4 hour, followed by assessment of cell viability using the microplate reader at 570 nm. Data were normalized to untreated controls and analyzed with Microsoft Excel.

[3] = tested on: AN3CA; assay: MTS Assay, cell proliferation, AN3CA; type: cell-based; settings: Homo sapiens, AN3-CA, read-out: Average of [CELL], IC50, MTS (72 hours; 10 Percent; FBS) AN3CA
Description: as §1

[4] = tested on: BT474; assay: MTS Assay, cell proliferation, BT474; type: cell-based; settings: Homo sapiens, BT-474, read-out: Average of [CELL], IC50, MTS (72 hours; 10 Percent; FBS) BT474
Description: as §1

[5] = tested on: LnCap; assay: MTS Assay, cell proliferation, LnCap; type: cell-based; settings: Homo sapiens, read-out: Average of [CELL], IC50, MTS (72 hours; 10 Percent; FBS) LnCap
Description: as §1

[6] = target: T1, Full-length inactive AKT1; assay: Inactive Akt Alpha Screen Assay; type: biochemical
Method in brief: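 AlphaScreen read-out (excitation 640 nm, emission 570 nm) after 90 min incubation at room temperature in the dark. Signal comes from crosstide phosphorylation by AKT1, which was activated by added PDK1, MAPKAPK2, ATP and lipid vesicles, captured via phospho-AKT substrate antibody and streptavidin beads.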

[7] = values not marked with "*", read-out: Akt1 IC50, (AlphaScreen)

T1 sequence (P31749 whole entry): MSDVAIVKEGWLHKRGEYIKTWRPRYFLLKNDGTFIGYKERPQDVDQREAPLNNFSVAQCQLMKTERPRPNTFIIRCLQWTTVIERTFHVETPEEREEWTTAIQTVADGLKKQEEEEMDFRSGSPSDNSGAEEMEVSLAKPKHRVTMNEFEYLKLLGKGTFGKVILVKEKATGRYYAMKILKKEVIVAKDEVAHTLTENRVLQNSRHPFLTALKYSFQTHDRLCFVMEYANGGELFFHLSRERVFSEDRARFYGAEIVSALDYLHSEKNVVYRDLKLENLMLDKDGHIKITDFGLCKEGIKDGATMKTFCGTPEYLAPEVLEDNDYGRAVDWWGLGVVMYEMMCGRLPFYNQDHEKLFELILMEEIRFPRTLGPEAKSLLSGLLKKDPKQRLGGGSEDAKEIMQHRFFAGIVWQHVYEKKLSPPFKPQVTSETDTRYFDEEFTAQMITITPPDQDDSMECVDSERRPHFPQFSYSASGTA

| Compound | IC50 [1] [µM] | IC50 [2] [µM] | IC50 [4] [nM] | IC50 [5] [nM] | IC50 [6, 7] [µM] | IC50 ([6]; AlphaScreen assay (values not marked with *), read-out: Akt1 IC50, (AlphaScreen) (μM) (or if marked with “*” HTRF assay)) [µM] | IC50 [3] [nM] |
| --- | --- | --- | --- | --- | --- | --- | --- |
| CCCCNC(=O)Cc1ccc(-n2c(-c3cccnc3N)nc3cccnc32)cc1 [Example 132, 2-{4-[2-(2-aminopyridin-3-yl)-3H-imidazo[4,5-b]pyridin-3-yl]phenyl}-N-butylacetamide] | 6.84 | – | – | – | – | – | – |
| Nc1ncccc1-c1nc2ccc(-c3cccnc3)nc2n1-c1ccc(CNC(=O)c2cccc(F)c2)cc1 [Example 333, N-(4-(2-(2-aminopyridin-3-yl)-5-(pyridin-3-yl)-3H-imidazo[4,5-b]pyridin-3-yl)benzyl)-3-fluorobenzamide] | – | 13 | 6100 | 5700 | 0.1 | – | 12000 |
| Cc1cnc2c(c1)nc(-c1cccnc1N)n2-c1ccc(CC(=O)Nc2ccc3ncccc3c2)cc1 [Example 295, 2-(4-(2-(2-aminopyridin-3-yl)-6-methyl-3H-imidazo[4,5-b]pyridin-3-yl)phenyl)-N-(quinolin-6-yl)acetamide] | – | 3.8 | 5000 | 1800 | 0.076 | – | 3300 |
| CC(=O)Nc1cccc(-c2ccc3nc(-c4cccnc4N)n(-c4ccc(CC(=O)Nc5cccc(F)c5)cc4)c3n2)c1 [Example 294, 2-(4-(5-(3-acetamidophenyl)-2-(2-aminopyridin-3-yl)-3H-imidazo[4,5-b]pyridin-3-yl)phenyl)-N-(3-fluorophenyl)acetamide] | – | 3.3 | 1100 | 950 | 0.016 | – | 1700 |
| CC(=O)Nc1ccc(-c2ccc3nc(-c4cccnc4N)n(-c4ccc(CNC(=O)c5ccc(C)c(F)c5)cc4)c3n2)cc1 [Example 292, N-(4-(5-(4-acetamidophenyl)-2-(2-aminopyridin-3-yl)-3H-imidazo[4,5-b]pyridin-3-yl)benzyl)-3-fluoro-4-methylbenzamide] | – | 7.4 | 940 | 730 | 0.096 | – | 2300 |
| CC(=O)Nc1cccc(-c2ccc3nc(-c4cccnc4N)n(-c4ccc(CNC(=O)c5ccccc5)cc4)c3n2)c1 [Example 287, N-(4-(5-(3-acetamidophenyl)-2-(2-aminopyridin-3-yl)-3H-imidazo[4,5-b]pyridin-3-yl)benzyl)benzamide] | – | 1.6 | 1200 | 2000 | 0.014 | – | 1500 |
| CC(=O)Nc1cccc(-c2ccc3nc(-c4cccnc4N)n(-c4ccc(CC(=O)NC(C)C)cc4)c3n2)c1 [Example 296, 2-(4-(5-(3-acetamidophenyl)-2-(2-aminopyridin-3-yl)-3H-imidazo[4,5-b]pyridin-3-yl)phenyl)-N-isopropylacetamide] | – | 33 | 6900 | 3900 | 0.095 | – | 12000 |
| CC(=O)Nc1cccc(NC(=O)Cc2ccc(-n3c(-c4cccnc4N)nc4ccc(-c5cccc(NC(C)=O)c5)nc43)cc2)c1 [Example 289, N-(3-acetamidophenyl)-2-(4-(5-(3-acetamidophenyl)-2-(2-aminopyridin-3-yl)-3H-imidazo[4,5-b]pyridin-3-yl)phenyl)acetamide] | – | 10 | 3200 | 17000 | 0.0063 | – | 12000 |
| CNC(=O)c1cc(-c2ccc3nc(-c4cccnc4N)n(-c4ccc(C5(N)CCC5)cc4)c3n2)ccc1F [Example 440, 5-{3-[4-(1-aminocyclobutyl)phenyl]-2-(2-aminopyridin-3-yl)-3H-imidazo[4,5-b]pyridin-5-yl}-2-fluoro-N-methylbenzamide] | – | – | – | – | – | 0.0054 | – |
| CNC(=O)c1cccc(-c2ccc3nc(-c4cccnc4N)n(-c4ccc(CN)cc4)c3n2)c1 [Example 369, 3-(3-(4-(aminomethyl)phenyl)-2-(2-aminopyridin-3-yl)-3H-imidazo[4,5-b]pyridin-5-yl)-N-methylbenzamide] | – | – | – | – | 0.0054 | – | – |
| CN(C)C(=O)c1cccc(-c2ccc3nc(-c4cccnc4N)n(-c4ccc(C5(N)CCC5)cc4)c3n2)c1 [Example 380, 3-(3-(4-(1-aminocyclobutyl)phenyl)-2-(2-aminopyridin-3-yl)-3H-imidazo[4,5-b]pyridin-5-yl)-N,N-dimethylbenzamide] | – | – | – | – | 0.0033 | – | – |
| Cc1ccc2cc(NC(=O)Cc3ccc(-n4c(-c5cccnc5N)nc5ccc(-c6cccnc6)nc54)cc3)ccc2n1 [Example 260, 2-(4-(2-(2-aminopyridin-3-yl)-5-(pyridin-3-yl)-3H-imidazo[4,5-b]pyridin-3-yl)phenyl)-N-(2-methylquinolin-6-yl)acetamide] | – | – | – | – | 0.014 | – | – |

Further lines, with some results ahead:

| IC50 [1] [µM] | IC50 [2] [µM] | IC50 [4] [nM] | IC50 [5] [nM] | IC50 [6, 7] [µM] | IC50 ([6]; AlphaScreen assay (values not marked with *), read-out: Akt1 IC50, (AlphaScreen) (μM) (or if marked with “*” HTRF assay)) [µM] | Compound | IC50 [3] [nM] |
| --- | --- | --- | --- | --- | --- | --- | --- |
| – | 3.3 | 1300 | 1900 | 0.013 | – | CC(=O)Nc1cccc(-c2ccc3nc(-c4cccnc4N)n(-c4ccc(CC(=O)Nc5ccccc5)cc4)c3n2)c1 [Example 261, 2-(4-(5-(3-acetamidophenyl)-2-(2-aminopyridin-3-yl)-3H-imidazo[4,5-b]pyridin-3-yl)phenyl)-N-phenylacetamide] | 2200 |
| – | 15 | 3600 | 3000 | 0.035 | – | CCCCNC(=O)Cc1ccc(-n2c(-c3cccnc3N)nc3ccc(-c4cccc(NC(C)=O)c4)nc32)cc1 [Example 297, 2-(4-(5-(3-acetamidophenyl)-2-(2-aminopyridin-3-yl)-3H-imidazo[4,5-b]pyridin-3-yl)phenyl)-N-butylacetamide] | 6500 |
| – | 3.8 | 620 | 2100 | 0.012 | – | CC(=O)Nc1cccc(-c2ccc3nc(-c4cccnc4N)n(-c4ccc(CC(=O)Nc5ccc6nc(C)ccc6c5)cc4)c3n2)c1 [Example 290, 2-(4-(5-(3-acetamidophenyl)-2-(2-amino-pyridin-3-yl)-3H-imidazo[4,5-b]pyridin-3-yl)phenyl)-N-(2-methylquinolin-6-yl)acetamide] | 1100 |
| – | – | – | – | 0.034 | – | Nc1ncccc1-c1nc2ccc(-c3ccc(C(=O)O)o3)nc2n1-c1ccc(CNC(=O)c2cccc(F)c2)cc1 [Example 312, 5-(2-(2-aminopyridin-3-yl)-3-(4-((3-fluoro-benzamido)methyl)phenyl)-3H-imidazo[4,5-b]pyridin-5-yl)furan-2-carboxylic acid] | – |
| – | – | – | – | 0.0021 | – | CC(=O)c1cccc(-c2ccc3nc(-c4cccnc4N)n(-c4ccc(C5(N)CCC5)cc4)c3n2)c1 [Example 372, 1-(3-(3-(4-(1-aminocyclobutyl)phenyl)-2-(2-aminopyridin-3-yl)-3H-imidazo[4,5-b]pyridin-5-yl)phenyl)ethanone] | – |
| – | – | – | – | 0.082 | – | Nc1ncccc1-c1nc2ccc(-c3cncnc3)nc2n1-c1ccc(CNC(=O)c2cccc(F)c2)cc1 [Example 337, N-(4-(2-(2-aminopyridin-3-yl)-5-(pyrimidin-5-yl)-3H-imidazo[4,5-b]pyridin-3-yl)benzyl)-3-fluorobenzamide] | – |
| – | – | – | – | 0.082 | – | Nc1ncccc1-c1nc2ccc(-c3ccccc3)nc2n1-c1ccc(NC(=O)c2ccccc2)cc1 [Example 254, N-(4-(2-(2-aminopyridin-3-yl)-5-phenyl-3H-imidazo[4,5-b]pyridin-3-yl)phenyl)benzamide] | – |
| – | – | – | – | 0.017 | – | COc1cccc(-c2ccc3nc(-c4cccnc4N)n(-c4ccc(C5(N)CCC5)cc4)c3n2)c1F [Example 421, 3-{3-[4-(1-aminocyclobutyl)phenyl]-5-(2-fluoro-3-methoxyphenyl)-3H-imidazo[4,5-b]pyridin-2-yl}pyridin-2-amine] | – |
